Reference: ChEMBL document CHEMBL5584305, “Cladoic Acid, an Anti-Trypanosoma cruzi Polyketide from Cladosporium sp. TP-F2020” (J Nat Prod, 2024)
The source made the active and inactive calls. No cut-off for these calls is given here.

How the values were obtained:
[1] = tested on: Kocuria rhizophila; experiment: Antimicrobial activity against Kocuria rhizophila ATCC 9341 at 100 microg/ml incubated for 20 hrs by liquid microculture method; format: functional, organism-based; conditions: dose 100.0 µg/ml
[2] = tested on: Staphylococcus aureus; experiment: Antimicrobial activity against Staphylococcus aureus FDA209P JC-1 at 100 microg/ml incubated for 20 hrs by liquid microculture method; format: functional, organism-based; conditions: dose 100.0 µg/ml
[3] = tested on: Escherichia coli; experiment: Antimicrobial activity against Escherichia coli NIHJ JC-2 at 100 microg/ml incubated for 20 hrs by liquid microculture method; format: functional, organism-based; conditions: dose 100.0 µg/ml
[4] = tested on: Agrobacterium radiobacter; experiment: Antimicrobial activity against Rhizobium radiobacter NBRC14554 at 100 microg/ml incubated for 20 hrs by liquid microculture method; format: functional, organism-based; conditions: dose 100.0 µg/ml
[5] = tested on: Candida albicans; experiment: Antimicrobial activity against Candida albicans NBRC0197 at 100 microg/ml incubated for 20 hrs by liquid microculture method; format: functional, organism-based; conditions: dose 100.0 µg/ml
[6] = tested on: Colletotrichum gloeosporioides; experiment: Antimicrobial activity against Glomerella cingulata NBRC5907 at 100 microg/ml incubated for 20 hrs by liquid microculture method; format: functional, organism-based; conditions: dose 100.0 µg/ml
[7] = tested on: Trichophyton rubrum; experiment: Antimicrobial activity against Trichophyton rubrum NBRC5467 at 100 microg/ml incubated for 20 hrs by liquid microculture method; format: functional, organism-based; conditions: dose 100.0 µg/ml
[8] = tested on: Saccharomyces cerevisiae; experiment: Antimicrobial activity against Saccharomyces cerevisiae S100 at 100 microg/ml incubated for 20 hrs by liquid microculture method; format: functional, organism-based; conditions: dose 100.0 µg/ml
[9] = Cytotoxicity against mouse P388 cells at 100 uM; format: toxicity, cell-based
[10] = tested on: Trypanosoma cruzi; experiment: Antitrypanosomal activity against Trypanosoma cruzi epimastigote assessed as inhibition of proliferation by measuring cellular ATP level incubated for 24 hrs by Cell Titer-Glo 2.0 assay; format: functional, organism-based
[11] = tested on: Trypanosoma cruzi; experiment: Antitrypanosomal activity against Trypanosoma cruzi Tulahuen amastigotes infected in human HT-1080 cells assessed as inhibition of parasite growth incubated for 3 days by light microscopic analysis; format: functional, organism-based; conditions: HT-1080, 72 h

With C\C(=C/C=C/C=C/[C@H]1[C@@H](C)[C@H](O)[C@@H](O)[C@H]2[C@H](O)[C@@H](C)C[C@@H](C)[C@H]12)C(=O)O the Activity [1] was “inactive”, the Activity [2] was “inactive” and the Activity [3] was “inactive”. For the same compound, the Activity [4] was “inactive”, the Activity [5] was “inactive” and the Activity [6] was “inactive”. The Activity [7] was “inactive”, the Activity [8] was “inactive” and the Activity [9] was “Non-Toxic”. For the same compound, the IC50 [10] was 46 µM and the IC50 [11] was 27 µM.
